Laboratory results from the supplement of paper PMC8882468.

Experiments:
Test in all cases: CTG-3D luminescence at 96 h relative to day-0 seeding control (ratio to day 0); higher = more growth / less cytotoxicity; PDxO 3D drug screen, 96 h, CTG-3D normalised to day-0 seeding control.
HCI-011.E2 = tested on: HCI-011.E2 (organoid from an ER-positive breast cancer xenograft)
HCI-001 = tested on: HCI-001 (organoid from a triple-negative breast cancer xenograft)
HCI-012 = tested on: HCI-012 (organoid from a breast cancer xenograft)
HCI-010 = tested on: HCI-010 (organoid from a breast cancer xenograft)
HCI-027 = tested on: HCI-027 (organoid from a triple-negative breast cancer xenograft)
MDA-MB-231 = tested on: MDA-MB-231

COc1cccc2c1C(=O)c1c(O)c3c(c(O)c1C2=O)C[C@@](O)(C(=O)CO)C[C@@H]3O[C@H]1C[C@H](N)[C@H](O)[C@H](C)O1 [doxorubicin]
CTG-3D luminescence at 96 h
Settings	12.5 pM	0.00025 µM	0.005 µM	0.1 µM	1 µM	10 µM	100 µM	625 fM
HCI-011.E2	1.59	1.65	1.4	1.98	1.42	0.122	0.0255	1.6
MDA-MB-231	4.38	4.45	4.38	3.75	1.48	0.458	0.288	4.4

CTG-3D luminescence at 96 h
Settings	12.5 pM	0.00025 µM	0.005 µM	0.1 µM	1 µM	10 µM	100 µM	625 fM
HCI-001, days in culture: 240	1.83	0.976	0.995	1.06	0.795	0.102	0.0662	1.82
HCI-001, days in culture: 260	2.69	0.99	2.06	1.71	0.863	0.169	0.0518	1.54
HCI-001, days in culture: 269	1.42	1.69	1.45	1.69	0.478	0.0884	0.00519	1.42
HCI-001, days in culture: 327	1.28	1.49	1.57	1.78	1.18	0.146	0.284	1.5
HCI-001, days in culture: 346	1.4	1.22	1.02	1.01	0.949	0.141	0.182	1.14
HCI-001, days in culture: 364	1.33	1.06	1.3	0.946	0.616	0.116	0.143	1.49
HCI-010, days in culture: 52	2.23	2.37	2.52	1.93	0.497	0.271	0.0478	2.26
HCI-010, days in culture: 65	1.7	1.65	1.8	1.3	0.324	0.288	-0.000428	1.65
HCI-010, days in culture: 103	3.64	3.76	3.69	2.37	0.535	0.804	0.0524	3.28
HCI-011.E2, days in culture: 74	2.69	1.99	2.17	2.07	1.65	0.129	0.0309	2.14
HCI-012, days in culture: 143	1.78	1.93	1.8	0.35	0.0586	-0.00257	-0.0149	1.91
HCI-012, days in culture: 162	2.15	2.16	2.04	0.961	0.0655	0.00235	-0.0139	3.15
HCI-012, days in culture: 201	2.84	1.58	1.7	0.408	0.0363	0.000335	-0.0192	1.33
HCI-027, days in culture: 176	2.14	1.93	1.87	0.162	0.0301	0.0198	0.0148	1.53
HCI-027, days in culture: 194	1.83	1.43	1.48	0.308	0.0306	0.0259	0.0261	1.7
HCI-027, days in culture: 201	1.99	2.28	1.79	0.325	0.0185	0.0267	0.0218	2.05

C[C@]12CC[C@@H]3c4ccc(O)cc4C[C@@H](CCCCCCCCC[S+]([O-])CCCC(F)(F)C(F)(F)F)[C@H]3[C@@H]1CC[C@@H]2O (stereo partly specified) [fulvestrant]
CTG-3D luminescence at 96 h
Settings	12.5 pM	0.00025 µM	0.005 µM	0.1 µM	1 µM	10 µM	100 µM	625 fM
HCI-011.E2	1.73	1.6	1.24	1.51	1.37	1.82	1.73	1.62
MDA-MB-231	4.61	4.53	4.7	4.58	4.8	4.81	5.18	4.69

CTG-3D luminescence at 96 h
Settings	12.5 pM	0.00025 µM	0.005 µM	0.1 µM	1 µM	10 µM	100 µM	625 fM
HCI-001, days in culture: 240	1.44	1.04	1.03	0.906	1.68	1.06	1.55	1.65
HCI-001, days in culture: 260	2.56	1.23	1.9	1.86	1.59	1.46	1.1	1.68
HCI-001, days in culture: 269	1.44	1.59	1.41	1.34	1.45	1.7	1.69	1.43
HCI-001, days in culture: 327	1.73	1.68	2.18	1.97	1.64	1.23	1.65	2.08
HCI-001, days in culture: 346	1.34	1.3	1.11	1.33	1.42	1.16	1.38	1.11
HCI-001, days in culture: 364	1.63	1.34	1.37	0.918	0.954	1.28	1.02	1.75
HCI-010, days in culture: 52	2.11	2.41	2.26	2.46	2.2	2.56	1.97	2.06
HCI-010, days in culture: 65	1.66	1.76	1.86	1.82	1.96	1.86	1.66	1.76
HCI-010, days in culture: 103	3.27	3.34	3.47	3.46	3.26	3.15	2.99	3.29
HCI-011.E2, days in culture: 74	2.77	2.62	1.87	2.1	2.1	2.2	2.02	2.9
HCI-012, days in culture: 143	2.28	2.33	2.23	2.41	2.43	2.43	2.25	1.92
HCI-012, days in culture: 162	2.65	2.28	1.8	3.05	2.77	3.17	2.71	2.92
HCI-012, days in culture: 201	2.77	2.3	1.52	1.85	2.21	1.48	2.1	1.53
HCI-027, days in culture: 176	2.05	1.67	2.89	2.3	2.57	1.77	2.18	2.36
HCI-027, days in culture: 194	1.74	1.82	1.53	1.78	2.32	2.05	2.15	1.71
HCI-027, days in culture: 201	2.63	2.77	2.87	2.64	2.56	2.01	1.85	2.4

Nc1ccn([C@@H]2O[C@H](CO)[C@@H](O)C2(F)F)c(=O)n1 [gemcitabine]
CTG-3D luminescence at 96 h
Settings	12.5 pM	0.00025 µM	0.005 µM	0.1 µM	1 µM	10 µM	100 µM	625 fM
HCI-011.E2	1.72	1.78	1.43	1.87	1.54	1.78	1.6	1.9
MDA-MB-231	4.42	4.37	4.14	2.62	2	1.11	0.848	4.44

CTG-3D luminescence at 96 h
Settings	12.5 pM	0.00025 µM	0.005 µM	0.1 µM	1 µM	10 µM	100 µM	625 fM
HCI-001, days in culture: 240	1.56	1.26	1.1	0.596	0.86	0.454	0.527	1.22
HCI-001, days in culture: 260	2.47	0.95	1.44	0.622	0.617	0.522	0.302	1.77
HCI-001, days in culture: 269	1.5	1.62	1.4	0.602	0.42	0.735	0.331	1.53
HCI-001, days in culture: 327	1.48	0.959	1.31	0.497	0.506	0.37	0.222	1.83
HCI-001, days in culture: 346	1.31	1.2	1.1	0.33	0.429	0.5	0.259	1.1
HCI-001, days in culture: 364	1.41	1.23	1.3	0.275	0.401	0.332	0.147	1.33
HCI-010, days in culture: 52	2.22	2.17	0.657	0.455	0.327	0.234	0.123	2.32
HCI-010, days in culture: 65	1.64	1.79	0.508	0.23	0.163	0.0878	0.0546	1.68
HCI-010, days in culture: 103	3.39	3.81	0.867	0.503	0.479	0.241	0.123	3.42
HCI-011.E2, days in culture: 74	2.11	2.93	2.13	2.09	2.18	2.75	2.12	2.22
HCI-012, days in culture: 143	2.04	2.09	1.86	0.136	0.104	0.118	0.054	1.61
HCI-012, days in culture: 162	2.63	2.42	1.38	0.146	0.113	0.113	0.0256	2.7
HCI-012, days in culture: 201	2.68	1.42	1.5	0.0613	0.383	0.0794	0.0454	1.69
HCI-027, days in culture: 176	2.02	1.16	1.52	0.363	0.366	0.298	0.25	2.36
HCI-027, days in culture: 194	1.78	1.42	0.983	0.145	0.284	0.28	0.115	1.66
HCI-027, days in culture: 201	2.19	1.37	0.658	0.204	0.136	0.21	0.104	2.28

C=CC(=O)N1CCC[C@@H](n2nc(-c3ccc(Oc4ccccc4)cc3)c3c(N)ncnc32)C1 [ibrutinib]
CTG-3D luminescence at 96 h
Settings	12.5 pM	0.00025 µM	0.005 µM	0.1 µM	1 µM	10 µM	100 µM	625 fM
HCI-011.E2	1.7	1.71	1.45	2	2.1	2.03	0.00409	1.84
MDA-MB-231	4.49	4.45	4.49	4.64	4.82	4.66	-0.0103	4.55

CTG-3D luminescence at 96 h
Settings	12.5 pM	0.00025 µM	0.005 µM	0.1 µM	1 µM	10 µM	100 µM	625 fM
HCI-001, days in culture: 240	1.62	0.923	0.958	1.01	0.901	0.951	-0.0017	1.14
HCI-001, days in culture: 260	2.29	1.15	2.12	0.971	1.31	1.12	-0.00311	1.46
HCI-001, days in culture: 269	1.59	1.71	1.51	1.41	1.06	1.38	-0.0108	1.48
HCI-001, days in culture: 327	1.45	1.07	1.49	1.3	1.25	0.932	-0.00545	1.92
HCI-001, days in culture: 346	1.37	1.36	1.14	0.896	1.23	1.15	-0.00544	1.3
HCI-001, days in culture: 364	1.37	1.18	1.57	0.992	1.12	1.02	-0.00371	1.6
HCI-010, days in culture: 52	2.16	2.15	2.34	2.35	2.08	1.47	-0.00732	2.5
HCI-010, days in culture: 65	1.67	1.66	1.79	1.73	1.79	0.888	-0.00863	1.69
HCI-010, days in culture: 103	3.5	3.57	3.54	3.41	3.26	1.51	-0.0156	3.23
HCI-011.E2, days in culture: 74	2.44	2.67	1.96	2.48	2.83	2.44	0.00445	2.75
HCI-012, days in culture: 143	1.95	2	1.95	2.2	1.64	1.12	-0.0164	1.75
HCI-012, days in culture: 162	2.49	1.94	2.13	2.98	1.72	1.53	-0.0115	2.67
HCI-012, days in culture: 201	2.76	1.92	1.72	1.69	2.52	0.842	-0.018	1.54
HCI-027, days in culture: 176	1.63	1.35	2.52	1.59	1.09	0.54	0.00595	1.73
HCI-027, days in culture: 194	1.68	1.52	1.52	1.6	1.98	1.69	0.00765	1.76
HCI-027, days in culture: 201	2.12	1.48	1.94	1.93	1.49	1.41	0.00768	2.11
